This note sets out measurements from patent US6030963A, “16-ene-26,27-bishomo cholecalciferols” (Hoffmann-La Roche Inc., priority 1998, dated 2000).

In series [1] the test system is HL-60 cells. The series is described as follows: HL-60 cell differentiation (NBT reduction, oxidative burst potential). The class given is cell-based. The following applies: Homo sapiens, 72 h, 3 days incubation, NBT reduction at 540 nm, mean of 3 wells, S.E.M. between 5 and 10%, read-out: ED50 (concentration leading to 50% of maximal differentiation achieved with 100-1000 nM calcitriol). As for the experimental part:
HL-60 Cell Differentiation
The induction of differentiation of HL-60 cells was assayed by measuring their oxidative burst potential via the reduction of nitrobluetetrazolium (NBT).
HL-60 cells (30,000 cells in 90 μl of supplemented RPMI medium) were seeded into flat-bottomed microliter wells. Immediately after seeding, 10 μl of test compounds listed below in Table I diluted in supplemented RPMI medium were added to the wells to yield final concentrations of between 10^-11 and 10^-6 M (starting from stock solutions of 10^-2 M in ethanol, stored at -20° C. and protected from light). After 3 days, medium was removed from the wells with a multichannel pipette and replaced with 100 μl of NBT solution (1 mg/ml in phosphate buffered saline with 200 nM phorbol myristate acetate). Following an additional hour incubation at 37° C. the NBT solution was removed and 100 μl of 10% sodium dodecyl sulfate in 0.01 N HCl was added. The amount of the reduced NBT was quantified photometrically at 540 nm using an automated plate reader. The mean of 3 wells was calculated. […] Values were expressed as percent of maximal differentiation achieved with 100-1000 nM calcitriol in the same experiment.

Series [2] in a line: Calcium tolerance test in mice (weight gain, highest tolerated dose). Particulars: mouse, in vivo, sc, daily subcutaneous, 4 consecutive days, body weight before and at end of 5 day treatment period, read-out: HTD (highest tolerated dose: dose which results in zero weight gain during treatment period). From the text: Calcium Tolerance Test In Mice
Profound changes in calcium homeostasis strongly affect the weight development of mice.
Mice (25-30 g body weight) received daily subcutaneous administrations of the compound for 4 consecutive days. Body weight was registered just before and at the end of a […] treatment period. The "highest tolerated dose" (HTD) is the dose which results in zero weight gain during this treatment period.

With `C=C1/C(=C\C=C2/CCC[C@]3(C)C([C@H](C)C/C=C/C(O)(CC)CC)=CC[C@@H]23)C[C@@H](O)C[C@@H]1O` [1,25-Dihydroxy-16,23E-diene-26,27-bishomo-cholecalciferol], in series [1], the EC50 was 3.8 nM. Moreover, in series [2], the MTD amounted to 2 µg/kg.
The corresponding values for `C=C1/C(=C\C=C2/CCC[C@]3(C)C([C@H](C)C/C=C\C(O)(CC)CC)=CC[C@@H]23)C[C@@H](O)C[C@@H]1O` [1,25-Dihydroxy-16,23Z-diene-26,27-bishomo-cholecalciferol] are 6.2 nM and 2.5 µg/kg.
As to `C=C1/C(=C\C=C2/CCC[C@]3(C)C([C@H](C)CC#CC(O)(CC)CC)=CC[C@@H]23)C[C@@H](O)C[C@@H]1O` [1,25-Dihydroxy-16-ene-23-yne-26,27-bishomo-cholecalciferol], the EC50 in series [1] was 2.5 nM. The MTD in series [2] amounted to 4 µg/kg.
